# Results taken from patent US8188098B2, “GPR119 receptor agonists” (Hoffmann-La Roche Inc., priority 2008, dated 2012).
# Target: T1, GPR119 receptor (Mesocricetus auratus, UniProt A0A1U8CD06)
# T1 construct: which endogenously express the GPR119 receptor; host or cells: HIT-T15 hamster pancreatic islet cells
# T1 sequence (A0A1U8CD06 1-334): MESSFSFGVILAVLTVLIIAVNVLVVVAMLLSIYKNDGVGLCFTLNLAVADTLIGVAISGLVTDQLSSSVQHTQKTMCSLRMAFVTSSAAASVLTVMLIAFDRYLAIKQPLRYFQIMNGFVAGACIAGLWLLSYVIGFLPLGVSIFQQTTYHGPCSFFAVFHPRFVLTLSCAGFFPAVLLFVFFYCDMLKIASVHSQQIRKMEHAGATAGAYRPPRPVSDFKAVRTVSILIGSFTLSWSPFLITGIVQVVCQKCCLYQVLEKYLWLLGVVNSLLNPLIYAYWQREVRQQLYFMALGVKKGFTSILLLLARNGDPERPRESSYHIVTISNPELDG
# Assay: cAMP assay in HIT-T15 hamster pancreatic islet cells (functional agonist activity)
# Format: cell-based
# Conditions: HIT-T15 cells endogenously expressing GPR119; 30 min at 25° C.; intracellular cAMP
# Experimental: The functional agonist activities of compounds of the invention were characterized using a cAMP assay in HIT-T15 hamster pancreatic islet cells (American Type Culture Collection, Manassas, Va., USA) which endogenously express the GPR119 receptor. The cells were cultured in Kaighn's modification of Ham's F12 medium (Invitrogen Corporation, Carlsbad, Calif., USA) containing 10% horse serum, 2.5% FBS, and 1% Pen/Strep and grown in 225 cm^2 tissue culture flasks until they reached 75-85% confluence.
# The cells were harvested 24 h prior to assay with 5 ml Versene®, washed with Kaighn/F12 medium and then plated into white 384-well plates (9000 cells/well) containing Kaighn/F12 medium. Prior to assay, the culture medium was replaced with a Kaighn/F12 medium without phenol red (50 μL/well) containing 0.5 mM 3-isobutyl-1-methylxanthine, 0.5 mg/ml BSA. The cells were incubated in the dark for 30 min at 25° C. in the absence or presence of varying concentrations of agonist (1 μL, 100% DMSO). The incubation media was discarded and replaced with the assay lysis buffer (50 μL/well) provided in the Tropix cAMP-Screen® kit (Applied Biosystems, Foster City, Calif., USA) and the plates incubated for 45 min at 37° C. The intracellular levels of cAMP generated in the HIT-T 15 cells were measured using the Tropix kit. In brief, 20 μL of the lysate was transferred into pre-coated antibody plates (384-well; Tropix kit) along with 10 μL of alkaline phosphatase conjugate and 20 μL of anti-cAMP antibody and the plates were incubated for 1 h at room temperature while shaking. The plates were then washed 5 times with wash buffer (70 μL) and tapped dry. CSPD®/Sapphire-II™ RTU substrate/enhancer solution (Applied Biosystems, Foster City, Calif., USA; 30 μL) was added and the plates were incubated for 45 min at room temperature while shaking. The signal generated was measured using a Wallac Victor V Luminometer (PerkinElmer Life And Analytical Sciences, Inc., Waltham, Mass., USA; 1 sec/well). EC50 values were calculated using the XLFit program (ID Business Solutions Ltd., Guildford, Surrey, UK).
row,SMILES,EC50 [µM]
1,"Cc1cc(C(=O)N2CCC(n3ncc4c(Oc5ccc(S(C)(=O)=O)cc5)ncnc43)CC2)no1 [Example 153, {4-[4-(4-Methanesulfonyl-phenoxy)-pyrazolo[3,4-d]pyrimidin-1-yl]-piperidin-1-yl}-(5-methyl-isoxazol-3-yl)-methanone]",4.4
2,"CC(C)(C)OC(=O)N1CCC(n2ncc3c(Oc4ccc(S(C)(=O)=O)cc4)nc(Cl)nc32)CC1 [Example 172, 4-[6-Chloro-4-(4-methanesulfonyl-phenoxy)-pyrazolo[3,4-d]pyrimidin-1-yl]-piperidine-1-carboxylic acid tert-butyl ester]",0.024
3,"Cc1ncccc1Oc1ncnc2c1cnn2C1CCN(C(=O)Oc2ccc([N+](=O)[O-])cc2)CC1 [Example 123, 4-[4-(2-Methyl-pyridin-3-yloxy)-pyrazolo[3,4-d]pyrimidin-1-yl]-piperidine-1-carboxylic acid 4-nitro-phenyl ester]",2.7
4,"CC(C)(C)OC(=O)N1CCC(n2ncc3c(Oc4cc(F)c(F)cc4C#N)ncnc32)CC1 [Example 50, 4-[4-(2-Cyano-4,5-difluoro-phenoxy)-pyrazolo[3,4-d]pyrimidin-1-yl]-piperidine-1-carboxylic acid tert-butyl ester]",0.69
5,"CS(=O)(=O)c1ccc(Oc2ncnc3c2cnn3C2CCN(Cc3ccc(Cl)cc3)CC2)cc1 [Example 160, 1-[1-(4-Chloro-benzyl)-piperidin-4-yl]-4-(4-methanesulfonyl-phenoxy)-1H-pyrazolo[3,4-d]pyrimidine]",0.57
6,"CS(=O)(=O)c1ccc(Oc2ncnc3c2cnn3C2CCN(C(=O)OCC(F)(F)F)CC2)cc1 [Example 113, 4-[4-(4-Methanesulfonyl-phenoxy)-pyrazolo[3,4-d]pyrimidin-1-yl]-piperidine-1-carboxylic acid 2,2,2-trifluoro-ethyl ester]",0.16
7,"C[S+]([O-])c1ccc(Oc2ncnc3c2cnn3C2CCN(C(=O)OC(C)(C)C)CC2)cc1 (stereo not drawn) [Example 58, 4-[4-(4-Methanesulfinyl-phenoxy)-pyrazolo[3,4-d]pyrimidin-1-yl]-piperidine-1-carboxylic acid tert-butyl ester]",0.42
8,"COc1ccc(Oc2ncnc3c2cnn3C2CCN(C(=O)OC(C)(C)C)CC2)cc1 [Example 39, 4-[4-(4-Methoxy-phenoxy)-pyrazolo[3,4-d]pyrimidin-1-yl]-piperidine-1-carboxylic acid tert-butyl ester]",0.72
9,"CC(C)(C)OC(=O)N1CCC(n2ncc3c(Oc4ccc(S(C)(=O)=O)c(F)c4)ncnc32)CC1 [Example 61, 4-[4-(3-Fluoro-4-methanesulfonyl-phenoxy)-pyrazolo[3,4-d]pyrimidin-1-yl]-piperidine-1-carboxylic acid tert-butyl ester]",0.095
10,"Cc1cc(Oc2ncnc3c2cnn3C2CCN(C(=O)OC(C)(C)C)CC2)ccc1NS(C)(=O)=O [Example 68, 4-[4-(4-Methanesulfonylamino-3-methyl-phenoxy)-pyrazolo[3,4-d]pyrimidin-1-yl]-piperidine-1-carboxylic acid tert-butyl ester]",0.73
11,"CC(C)c1noc([C@H]2CC[C@H](n3ncc4c(Oc5ccc(S(C)(=O)=O)cc5F)ncnc43)CC2)n1 [Example 132, 4-(2-Fluoro-4-methanesulfonyl-phenoxy)-1-[4-(3-isopropyl-[1,2,4]oxadiazol-5-yl)-trans-cyclohexyl]-1H-pyrazolo[3,4-d]pyrimidine]",0.35
12,"CC(C)(C)OC(=O)N1CCC(n2ncc3c(Oc4ccc5ccc(=O)oc5c4)ncnc32)CC1 [Example 75, 4-[4-(2-Oxo-2H-chromen-7-yloxy)-pyrazolo[3,4-d]pyrimidin-1-yl]-piperidine-1-carboxylic acid tert-butyl ester]",1.8
13,"Cc1nc(Cl)ccc1Oc1ncnc2c1cnn2C1CCN(C(=O)OC(C)(C)C)CC1 [Example 97, 4-[4-(6-Chloro-2-methyl-pyridin-3-yloxy)-pyrazolo[3,4-d]pyrimidin-1-yl]-piperidine-1-carboxylic acid tert-butyl ester]",0.53
14,"CC(C)(C)OC(=O)N1CCC(n2ncc3c(Oc4ccccc4C#N)ncnc32)CC1 [Example 45, 4-[4-(2-Cyano-phenoxy)-pyrazolo[3,4-d]pyrimidin-1-yl]-piperidine-1-carboxylic acid tert-butyl ester]",0.061
15,"CS(=O)(=O)c1ccc(Oc2ncnc3c2cnn3C2CCN(C(=O)c3ccccc3)CC2)cc1 [Example 149, {4-[4-(4-Methanesulfonyl-phenoxy)-pyrazolo[3,4-d]pyrimidin-1-yl]-piperidin-1-yl}-phenylmethanone]",1.7
16,"Cc1ncccc1Oc1ncnc2c1cnn2C1CCN(C(=O)OCC(C)C)CC1 [Example 107, 4-[4-(2-Methyl-pyridin-3-yloxy)-pyrazolo[3,4-d]pyrimidin-1-yl]-piperidine-1-carboxylic acid isobutyl ester]",0.19
17,"CS(=O)(=O)c1ccc(Oc2ncnc3c2cnn3C2CCN(C(=O)CCc3ccccc3)CC2)cc1 [Example 146, 1-{4-[4-(4-Methanesulfonyl-phenoxy)-pyrazolo[3,4-d]pyrimidin-1-yl]-piperidin-1-yl}-3-phenyl-propan-1-one]",1
18,"COc1ccc(Oc2ncnc3c2cnn3C2CCN(C(=O)OC(C)(C)C)CC2)c(OC)n1 [Example 95, 4-[4-(2,6-Dimethoxy-pyridin-3-yloxy)-pyrazolo[3,4-d]pyrimidin-1-yl]-piperidine-1-carboxylic acid tert-butyl ester]",0.89

# Continued by falling EC50, values first:
row,EC50 [µM],SMILES
1,2,"CC(C)OC(=O)N1CCC(n2ncc3c(Oc4ccccc4)ncnc32)CC1 [Example 15, 4-(4-Phenoxy-pyrazolo[3,4-d]pyrimidin-1-yl)-piperidine-1-carboxylic acid isopropyl ester]"
2,1.2,"CC(C)(C)OC(=O)N1CCC(n2ncc3c(Oc4cccnc4)ncnc32)CC1 [Example 91, 4-[4-(Pyridin-3-yloxy)-pyrazolo[3,4-d]pyrimidin-1-yl]-piperidine-1-carboxylic acid tert-butyl ester]"
3,0.82,"CC(C)(C)OC(=O)N1CCC(n2ncc3c(Oc4ccc5c(c4)CCS5(=O)=O)ncnc32)CC1 [Example 79, 4-[4-(1,1-Dioxo-2,3-dihydro-1H-1λ^6-benzo[b]thiophen-5-yloxy)-pyrazolo[3,4-d]pyrimidin-1-yl]-piperidine-1-carboxylic acid tert-butyl ester]"
4,0.71,"CS(=O)(=O)c1ccc(Oc2ncnc3c2cnn3C2CCN(c3ccc(Cl)nn3)CC2)cc1 [Example 130, 1-[1-(6-Chloro-pyridazin-3-yl)-piperidin-4-yl]-4-(4-methanesulfonyl-phenoxy)-1H-pyrazolo[3,4-d]pyrimidine]"
5,0.29,"CC(C)(C)OC(=O)N1CCC(n2ncc3c(Oc4ccc5c(c4)OCO5)ncnc32)CC1 [Example 41, 4-[4-(Benzo[1,3]dioxol-5-yloxy)-pyrazolo[3,4-d]pyrimidin-1-yl]-piperidine-1-carboxylic acid tert-butyl ester]"
6,0.28,"CS(=O)(=O)c1ccc(Oc2ncnc3c2cnn3C2CCN(Cc3cccc(Cl)c3)CC2)cc1 [Example 158, 1-[1-(3-Chloro-benzyl)-piperidin-4-yl]-4-(4-methanesulfonyl-phenoxy)-1H-pyrazolo[3,4-d]pyrimidine]"
7,0.28,"CC(C)(C)OC(=O)N1CCC(n2ncc3c(Oc4ccc(S(N)(=O)=O)cc4)ncnc32)CC1 [Example 56, 4-[4-(4-Sulfamoyl-phenoxy)-pyrazolo[3,4-d]pyrimidin-1-yl]-piperidine-1-carboxylic acid tert-butyl ester]"
8,0.26,"CCOc1ccc(Oc2ncnc3c2cnn3C2CCN(C(=O)C3CCCC3)CC2)c(F)c1 [Example 147, Cyclopentyl-{4-[4-(4-ethoxy-2-fluoro-phenoxy)-pyrazolo[3,4-d]pyrimidin-1-yl]-piperidin-1-yl}-methanone]"
9,0.096,"Cc1nc(S(C)(=O)=O)ccc1Oc1ncnc2c1cnn2C1CCN(C(=O)OC(C)(C)C)CC1 [Example 98, 4-[4-(6-Methanesulfonyl-2-methyl-pyridin-3-yloxy)-pyrazolo[3,4-d]pyrimidin-1-yl]-piperidine-1-carboxylic acid tert-butyl ester]"
